PMC5055294 (PLoS ONE, 2016)
One block for each molecule: values may come before it.

What was measured:
[1] = system: CCRL2; details: cited from earlier work; for calcium mobilization and chemotaxis through CCRL2: ref [20], not confirmed by other groups [23]
Excerpt: (§1) […]. CMKLR1 is coupled to the Gi/o family of G proteins and in cells ...

[2] = system: CCRL2; experiment: G protein BRET assay, CCRL2; type: cell-based, human; details: CCRL2, HEK293T; 100 nM chemerin, 1 minute
Method: (§2) G protein activation was assayed by BRET as previously described. Briefly, plasmids encoding G protein biosensors and receptors of interest were co-transfected into HEK293T cells by using the calcium phosphate method. Forty-eight hours after transfection, cells were washed twice with PBS, detached and resuspended in PBS plus 0.1% (w/v) glucose at room temperature. Cells were then distributed (80 μg of proteins per well) in a 96-well microplate (Optiplate, PerkinElmer). BRET^2 between RLuc8 and GFP10 was measured 1 min after addition of coelenterazine 400a/Deep blue C (5 μM, Gentaur). BRET readings were collected using an Infinite F200 reader (Tecan). The BRET signal was calculated as the ratio of emission of GFP10 (510–540 nm) to RLuc8 (370–450 nm).
(§3) As controls, cells expressing the α2c adrenergic receptor (Gαi/o) were stimulated with UK14304; cells expressing the AT1 angiotensin receptor (Gα11/q) were stimulated with angiotensin II; cells expressing the β2 adrenergic receptor (Gαs) were stimulated with isoproterenol; cells expressing thromboxane A2 receptor (Gα12/13) were stimulated with U46619. Data represent the mean ± S.E.M. of three to six independent experiments. Statistical significance was assessed using Tukey's test (***P < 0.0001).

[3] = system: FPR1; experiment: G protein BRET assay, negative control FPR1; type: cell-based; details: HEK293T, 100 nM chemerin, 1 minute
Method: as §2, §3

[4] = system: CCRL2; experiment: ERK1/2 phosphorylation in CHO-K1 cells, CCRL2; type: cell-based, human; details: 300 nM chemerin, immunoblot
Method: CHO-K1 and MEF cells stably expressing receptors of interest were starved for 12–18 h in serum-free medium prior to stimulation. […] Whole cell lysates were resolved on 10% Tris/Tricine polyacrylamide gels and transferred to nitrocellulose membranes. Phosphorylated ERK1/2 and total ERK1/2 were detected by using rabbit polyclonal anti-phospho-ERK1/2 (Cell Signaling #4370, 1:1,000) and anti-ERK1/2 (Cell Signaling #4695S, 1:2,000) antibodies. Chemiluminescent detection was performed using ECL-Plus reagent (Perkin Elmer).
(§4) A. Calcium mobilization was measured in CHO-K1 cells using the aequorin-based functional assay. […] The results were normalized for the basal luminescence of the cells in absence of agonist (0%) and the maximal response obtained for each cell line with 10 μM ATP (100%). […] Data represent the mean ± S.E.M. of three independent experiments C. […] Detection of total ERK1/2 by Western blotting was used to ascertain that an equal amount of material was loaded in each lane (lower panel). A typical experiment out of three performed independently is shown.

[5] = system: CCRL2; experiment: β-arrestin BRET recruitment assay, CCRL2; type: cell-based, human; details: β-arrestin1-Rluc or β-arrestin2-Rluc, CCRL2-Venus, HEK293T; 100 nM chemerin; 25°C
Method: β-arrestin recruitment was measured by a BRET proximity assay as previously described. Briefly, plasmids encoding Rluc-β-arrestin 2 and receptors fused to Venus were cotransfected into HEK293T cells by using the calcium phosphate method. Twenty-four hours post-transfection, cells were collected and seeded in 96-well microplates (165306, Nunc) and cultured for an additional 24 h. Cells were then rinsed once with PBS and incubated in PBS plus 0.1% (w/v) glucose at 25°C to slow down kinetics of arrestin recruitment and improve temporal resolution. BRET^1 between RLuc and YFP was measured after the addition of coelenterazine h (5 μM, Promega). […] The BRET signal was calculated as the ratio of emission of YFP (520–570 nm) to RLuc (370–480 nm).
Fig 6 Recruitment of β-arrestins by CMKLR1 and GPR1. […] Data represent the mean ± S.E.M. of three independent experiments.

[6] = system: GPR44/CRTH2; experiment: G protein BRET assay, negative control GPR44/CRTH2; type: cell-based; details: HEK293T, 100 nM chemerin, 1 minute
Method: as §2, §3

[7] = system: CMKLR1; details: cited from earlier work
Excerpt: as §1

[8] = system: leukocyte populations that express CMKLR1; details: ex vivo; dendritic cells, macrophages and natural killer cells; ref [1],[8]–[10]; cited from earlier work
Excerpt: as §1

[9] = system: GPR1; details: ref [13], cited from earlier work
Excerpt: as §1

[10] = system: CCRL2; experiment: Intracellular calcium mobilization (aequorin), CCRL2; type: cell-based, human; details: CCRL2, CHO-K1, aequorin
Method: Calcium mobilization was measured by an aequorin-based assay as previously described. Briefly, CHO-K1 cells stably expressing apoaequorin and the receptors of interest were incubated for 4 h in the dark in the presence of 5 μM coelenterazine h (Promega) and then diluted before use to reach the appropriate cell density.
as §4

[11] = system: GPR33; experiment: G protein BRET assay, negative control GPR33; type: cell-based; details: HEK293T, 100 nM chemerin, 1 minute
Method: as §2, §3

[12] = system: CCRL2; experiment: Radiolabelled chemerin internalization (acid-wash), CCRL2; type: cell-based, human; details: CCRL2, CHO-K1; incubation at 28°C
Method: Cell surface receptor was detected by flow cytometry using a saturating concentration of antibodies specific for CMKLR1 (●), GPR1 (◯) or CCRL2 (△). Results were normalized for the fluorescence of unstimulated cells (100%) and for background fluorescence (0%). Data represent the mean ± S.E.M. of three independent experiments. […] Then, cells were either left at 4°C or shifted to 28°C to allow receptor internalization. After 90 minutes, cells were acid-washed and the amount of radioactivity remaining associated with the cells was measured. Data represent the mean ± S.E.M. of three independent experiments.

[13] = target: T1, CCRL2 (human, UniProt O00421 1-344); experiment: cell-based or functional assay
T1 sequence (looked up): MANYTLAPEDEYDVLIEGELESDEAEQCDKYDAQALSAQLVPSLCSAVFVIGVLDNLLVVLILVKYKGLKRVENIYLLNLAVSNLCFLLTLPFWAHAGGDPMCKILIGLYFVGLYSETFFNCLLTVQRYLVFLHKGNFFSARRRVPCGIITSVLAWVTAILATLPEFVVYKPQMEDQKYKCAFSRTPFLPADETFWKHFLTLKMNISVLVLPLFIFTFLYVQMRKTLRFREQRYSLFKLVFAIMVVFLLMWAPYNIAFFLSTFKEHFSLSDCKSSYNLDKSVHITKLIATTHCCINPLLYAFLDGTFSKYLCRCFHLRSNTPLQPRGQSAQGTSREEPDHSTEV

[14] = target: T1, CCRL2; experiment: radioligand binding; competition: CHO-K1 cells expressing the receptor with 0.1 nM [125I]-chemerin as tracer and increasing concentrations of unlabelled chemerin or chemerin 9; 50 mM HEPES pH 7.4, 1 mM CaCl2, 5 mM MgCl2, 250 mM sucrose, 0.5% BSA; 30 min at room temperature; filtration; details: one partner purified
[15] = target: T2, GPR1 (human, UniProt P46091 1-355); experiment: as above; details: one partner purified
T2 construct: GPR1, human chemerin receptor, expressed on CHO-K1 cells; The functional rows with G protein biosensors (HEK293T, transfected) and with MEF cells also use this molecule; source: CHO-K1, stably expressing (Clone 8), on cells
T2 sequence (looked up): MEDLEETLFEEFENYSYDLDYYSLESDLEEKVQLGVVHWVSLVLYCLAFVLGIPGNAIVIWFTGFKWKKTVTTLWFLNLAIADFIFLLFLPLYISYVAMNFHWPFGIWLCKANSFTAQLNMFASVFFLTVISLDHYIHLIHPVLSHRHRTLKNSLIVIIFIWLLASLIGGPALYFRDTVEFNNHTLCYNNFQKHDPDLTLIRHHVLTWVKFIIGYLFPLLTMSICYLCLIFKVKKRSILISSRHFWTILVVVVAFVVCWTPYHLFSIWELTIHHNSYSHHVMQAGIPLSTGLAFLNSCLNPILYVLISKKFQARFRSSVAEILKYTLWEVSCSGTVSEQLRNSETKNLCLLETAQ

Molecule: CCL2: chemokine
calcium mobilization and chemotaxis through CCRL2 [1]: promotes calcium mobilization and chemotaxis

Molecule: CCL7: chemokine
calcium mobilization and chemotaxis through CCRL2 [1]: promotes calcium mobilization and chemotaxis

Molecule: Chemerin: small chemotactic protein, natural ligand of CMKLR1; purchased from R&D Systems
G protein activation [2]: none of the G proteins tested were activated by GPR1 or CCRL2 upon chemerin stimulation | G protein BRET signal (Gαi/o biosensors) [3]: generated signals of much weaker magnitude | phosphorylation of ERK1/2 [4]: generated no detectable signals | β-arrestin recruitment [5]: CCRL2 does not recruit β-arrestins | G protein BRET signal (Gαi/o biosensors) [6]: generated signals of much weaker magnitude | calcium mobilization or ligand internalization ([1]; CCRL2, chemerin, ref [11]): does not induce calcium mobilization or ligand internalization | recruitment of β-arrestin2 to CMKLR1 ([7]; introduction, no reference given): induces the recruitment of β-arrestin2 to CMKLR1 | signaling in cells expressing CMKLR1 ([7]; ref [7]): inhibits cAMP production and promotes phospholipase C activation, IP3 release, calcium mobilization as well as activation of PI3K and MAPK pathways | chemotaxis [8]: promotes chemotaxis of leukocyte populations that express CMKLR1 | calcium mobilization ([9]; GPR1, recombinant cell lines): activate weakly calcium mobilization in recombinant cell lines | down-regulation of GPR1 [9]: induces its rapid down-regulation | calcium mobilization [10]: generated no detectable signals | G protein BRET signal (Gαi/o biosensors) [11]: generated signals of much weaker magnitude

Molecule: [^125I]-chemerin: R&DSystems, custom labelling performed by Perkin Elmer; tracer
radioactivity lost after acid-wash (chemerin internalization) [12]: nearly all the radioactivity associated to cells expressing CCLR2 was lost after the acid-wash procedure

t1/2 of down-regulation of the receptor from the cell surface (FACS, CHO-K1, 100 nM chemerin) [13]: > 1 h | pIC50 [14]: 9.1 | pIC50 [15]: 9.9
B1: Chemerin (unlabelled) (ligand, human, UniProt Q99969 21-157, looked up)
chain: ELTEAQRRGLQVALEEFHKHPPVQWAFQETSVESAVDTPFPAGIFVRLEFKLQQTSCRKRDWKKPECKVRPNGRKRKCLACIKLGSEDKVLGRLVHCPIETQVLREAEEHQETQCLRVQRAGEDPHSFYFPGQFAFS
notes: chemerin, human; also called full length chemerin; full size chemerin; source: bought: R&D Systems

B2: CCL8: chemokine (protein, UniProt P80075 24-99, looked up)
C-C motif chemokine 8: QPDSVSIPITCCFNVINRKIPIQRLESYTRITNIQCPKEAVIFKTKRGKEVCADPKERWVRDSMKHLDQIFQNLKP
calcium mobilization and chemotaxis through CCRL2 [1]: promotes calcium mobilization and chemotaxis

B3: CCL5: chemokine (protein, UniProt P13501 24-91, looked up)
C-C motif chemokine 5: SPYSSDTTPCCFAYIARPLPRAHIKEYFYTSGKCSNPAVVFVTRKNRQVCANPEKKWVREYINSLEMS
calcium mobilization and chemotaxis through CCRL2 [1]: promotes calcium mobilization and chemotaxis
